Test results from ChEMBL document CHEMBL1800064, “Biaryl ethers as potent allosteric inhibitors of reverse transcriptase and its key mutant viruses: aryl substituted pyrazole as a surrogate for the pyrazolopyridine motif” (Bioorg Med Chem Lett, 2010).

Tests used:
[1] = test system: Human immunodeficiency virus 1; experiment: Antiviral activity against HIV1 isolate NL4-3 harboring reverse transcriptase G190A mutant assessed as inhibition of viral replication by phenoscreen assay in presence of 40% normal human serum; assay type: functional, organism-based; details: Human immunodeficiency virus 1, isolate NL4-3
[2] = test system: Human immunodeficiency virus 1; experiment: Antiviral activity against HIV1 isolate NL4-3 harboring reverse transcriptase G190S mutant assessed as inhibition of viral replication by phenoscreen assay in presence of 40% normal human serum; assay type: functional, organism-based; details: Human immunodeficiency virus 1, isolate NL4-3
[3] = test system: Human immunodeficiency virus 1; experiment: Antiviral activity against HIV1 isolate NL4-3 harboring reverse transcriptase K103N/V179E double mutant assessed as inhibition of viral replication by phenoscreen assay in presence of 40% normal human serum; assay type: functional, organism-based; details: Human immunodeficiency virus 1, isolate NL4-3
[4] = test system: Human immunodeficiency virus 1; experiment: Antiviral activity against HIV1 isolate NL4-3 harboring reverse transcriptase K103N/Y181C double mutant assessed as inhibition of viral replication by phenoscreen assay in presence of 40% normal human serum; assay type: functional, organism-based; details: Human immunodeficiency virus 1, isolate NL4-3
[5] = test system: Human immunodeficiency virus 1; experiment: Antiviral activity against HIV1 isolate NL4-3 harboring reverse transcriptase K103N/G190A double mutant assessed as inhibition of viral replication by phenoscreen assay in presence of 40% normal human serum; assay type: functional, organism-based; details: Human immunodeficiency virus 1, isolate NL4-3
[6] = test system: Human immunodeficiency virus 1; experiment: Antiviral activity against HIV1 isolate NL4-3 harboring reverse transcriptase Y181C/G190A double mutant assessed as inhibition of viral replication by phenoscreen assay in presence of 40% normal human serum; assay type: functional, organism-based; details: Human immunodeficiency virus 1, isolate NL4-3
[7] = test system: Human immunodeficiency virus 1; experiment: Antiviral activity against HIV1 isolate NL4-3 harboring reverse transcriptase K103N/P225H double mutant assessed as inhibition of viral replication by phenoscreen assay in presence of 40% normal human serum; assay type: functional, organism-based; details: Human immunodeficiency virus 1, isolate NL4-3
[8] = test system: Human immunodeficiency virus 1; experiment: Antiviral activity against HIV1 isolate NL4-3 harboring reverse transcriptase K101E/G190A double mutant assessed as inhibition of viral replication by phenoscreen assay in presence of 40% normal human serum; assay type: functional, organism-based; details: Human immunodeficiency virus 1, isolate NL4-3
[9] = test system: Human immunodeficiency virus 1; experiment: Antiviral activity against HIV1 isolate NL4-3 harboring reverse transcriptase K101E/Y181C/G190A mutant assessed as inhibition of viral replication by phenoscreen assay in presence of 40% normal human serum; assay type: functional, organism-based; details: Human immunodeficiency virus 1, isolate NL4-3
[10] = test system: Human immunodeficiency virus 1; experiment: Antiviral activity against HIV1 isolate NL4-3 harboring reverse transcriptase K103N/Y181C/G190A mutant assessed as inhibition of viral replication by phenoscreen assay in presence of 40% normal human serum; assay type: functional, organism-based; details: Human immunodeficiency virus 1, isolate NL4-3
[11] = test system: Human immunodeficiency virus 1; experiment: Antiviral activity against HIV1 isolate NL4-3 harboring reverse transcriptase V106A/G190A/F227L mutant assessed as inhibition of viral replication by phenoscreen assay in presence of 40% normal human serum; assay type: functional, organism-based; details: Human immunodeficiency virus 1, isolate NL4-3
[12] = test system: Human immunodeficiency virus 1; experiment: Ratio IC50 for HIV1 isolate NL4-3 harboring reverse transcriptase L100I mutant to IC50 for HIV1 isolate NL4-3 harboring wild type reverse transcriptase by phenoscreen assay in presence of 40% normal human serum; assay type: functional
[13] = test system: Human immunodeficiency virus 1; experiment: Ratio IC50 for HIV1 isolate NL4-3 harboring reverse transcriptase K103N mutant to IC50 for HIV1 isolate NL4-3 harboring wild type reverse transcriptase by phenoscreen assay in presence of 40% normal human serum; assay type: functional
[14] = test system: Human immunodeficiency virus 1; experiment: Ratio IC50 for HIV1 isolate NL4-3 harboring reverse transcriptase Y181C mutant to IC50 for HIV1 isolate NL4-3 harboring wild type reverse transcriptase by phenoscreen assay in presence of 40% normal human serum; assay type: functional
[15] = test system: Human immunodeficiency virus 1; experiment: Ratio IC50 for HIV1 isolate NL4-3 harboring reverse transcriptase Y188L mutant to IC50 for HIV1 isolate NL4-3 harboring wild type reverse transcriptase by phenoscreen assay in presence of 40% normal human serum; assay type: functional
[16] = test system: Human immunodeficiency virus 1; experiment: Ratio IC50 for HIV1 isolate NL4-3 harboring reverse transcriptase G190A mutant to IC50 for HIV1 isolate NL4-3 harboring wild type reverse transcriptase by phenoscreen assay in presence of 40% normal human serum; assay type: functional
[17] = test system: Human immunodeficiency virus 1; experiment: Ratio IC50 for HIV1 isolate NL4-3 harboring reverse transcriptase G190S mutant to IC50 for HIV1 isolate NL4-3 harboring wild type reverse transcriptase by phenoscreen assay in presence of 40% normal human serum; assay type: functional
[18] = test system: Human immunodeficiency virus 1; experiment: Ratio IC50 for HIV1 isolate NL4-3 harboring reverse transcriptase K103N/V179E double mutant to IC50 for HIV1 isolate NL4-3 harboring wild type reverse transcriptase by phenoscreen assay in presence of 40% normal human serum; assay type: functional
[19] = test system: Human immunodeficiency virus 1; experiment: Ratio IC50 for HIV1 isolate NL4-3 harboring reverse transcriptase K103N/Y181C double mutant to IC50 for HIV1 isolate NL4-3 harboring wild type reverse transcriptase by phenoscreen assay in presence of 40% normal human serum; assay type: functional
[20] = test system: Human immunodeficiency virus 1; experiment: Ratio IC50 for HIV1 isolate NL4-3 harboring reverse transcriptase K103N/G190A double mutant to IC50 for wild type HIV1 isolate NL4-3 harboring reverse transcriptase by phenoscreen assay in presence of 40% normal human serum; assay type: functional
[21] = test system: Human immunodeficiency virus 1; experiment: Ratio IC50 for HIV1 isolate NL4-3 harboring reverse transcriptase Y181C/G190A double mutant to IC50 for HIV1 isolate NL4-3 harboring wild type reverse transcriptase by phenoscreen assay in presence of 40% normal human serum; assay type: functional
[22] = test system: Human immunodeficiency virus 1; experiment: Ratio IC50 for HIV1 isolate NL4-3 harboring reverse transcriptase K103N/P225H double mutant to IC50 for HIV1 isolate NL4-3 harboring wild type reverse transcriptase by phenoscreen assay in presence of 40% normal human serum; assay type: functional
[23] = test system: Human immunodeficiency virus 1; experiment: Ratio IC50 for HIV1 isolate NL4-3 harboring reverse transcriptase K101E/G190A double mutant to IC50 for HIV1 isolate NL4-3 harboring wild type reverse transcriptase by phenoscreen assay in presence of 40% normal human serum; assay type: functional
[24] = test system: Human immunodeficiency virus 1; experiment: Ratio IC50 for HIV1 isolate NL4-3 harboring reverse transcriptase K101E/Y181C/G190A mutant to IC50 for HIV1 isolate NL4-3 harboring wild type reverse transcriptase by phenoscreen assay in presence of 40% normal human serum; assay type: functional
[25] = test system: Human immunodeficiency virus 1; experiment: Ratio IC50 for HIV1 isolate NL4-3 harboring reverse transcriptase K103N/Y181C/G190A mutant to IC50 for HIV1 isolate NL4-3 harboring wild type reverse transcriptase by phenoscreen assay in presence of 40% normal human serum; assay type: functional
[26] = test system: Human immunodeficiency virus 1; experiment: Ratio IC50 for HIV1 isolate NL4-3 harboring reverse transcriptase V106A/G190A/F227L mutant to IC50 for HIV1 isolate NL4-3 harboring wild type reverse transcriptase by phenoscreen assay in presence of 40% normal human serum; assay type: functional
[27] = test system: Human immunodeficiency virus 1; experiment: Antiviral activity against HIV1 R8 harboring wild type reverse transcriptase infected in human MT4 cells assessed as inhibition of viral spread in presence of 10% fetal bovine serum; assay type: functional; details: Human immunodeficiency virus 1, R8, MT4; read-out: CIC95
[28] = biological target: Human immunodeficiency virus type 1 reverse transcriptase (Human immunodeficiency virus 1, UniProt Q72547); experiment: Inhibition of wild type HIV1 reverse transcriptase by SPA assay
[29] = biological target: Human immunodeficiency virus type 1 reverse transcriptase (Human immunodeficiency virus 1, UniProt Q72547, K103N); experiment: Inhibition of HIV1 reverse transcriptase K103N mutant by SPA assay
[30] = biological target: Human immunodeficiency virus type 1 reverse transcriptase (Human immunodeficiency virus 1, UniProt Q72547, Y181C); experiment: Inhibition of HIV1 reverse transcriptase Y181C mutant by SPA assay
[31] = test system: Human immunodeficiency virus 1; experiment: Antiviral activity against HIV1 isolate NL4-3 harboring wild type reverse transcriptase assessed as inhibition of viral replication by phenoscreen assay in presence of 40% normal human serum; assay type: functional, organism-based; details: Human immunodeficiency virus 1, isolate NL4-3
[32] = test system: Human immunodeficiency virus 1; experiment: Antiviral activity against HIV1 R8 harboring reverse transcriptase infected in human MT4 cells assessed as inhibition of viral spread in presence of 50% normal human serum; assay type: functional; details: Human immunodeficiency virus 1, R8, MT4; read-out: CIC95
[33] = test system: Human immunodeficiency virus 1; experiment: Antiviral activity against HIV1 R8 harboring reverse transcriptase K103N mutant infected in human MT4 cells assessed as inhibition of viral spread in presence of 10% fetal bovine serum; assay type: functional; details: Human immunodeficiency virus 1, R8, MT4; read-out: CIC95
[34] = test system: Human immunodeficiency virus 1; experiment: Antiviral activity against HIV1 R8 harboring reverse transcriptase Y181C mutant infected in human MT4 cells assessed as inhibition of viral spread in presence of 10% fetal bovine serum; assay type: functional; details: Human immunodeficiency virus 1, R8, MT4; read-out: CIC95
[35] = test system: Human immunodeficiency virus 1; experiment: Antiviral activity against HIV1 isolate NL4-3 harboring reverse transcriptase L100I mutant assessed as inhibition of viral replication by phenoscreen assay in presence of 40% normal human serum; assay type: functional, organism-based; details: Human immunodeficiency virus 1, isolate NL4-3
[36] = test system: Human immunodeficiency virus 1; experiment: Antiviral activity against HIV1 isolate NL4-3 harboring reverse transcriptase K103N mutant assessed as inhibition of viral replication by phenoscreen assay in presence of 40% normal human serum; assay type: functional, organism-based; details: Human immunodeficiency virus 1, isolate NL4-3
[37] = test system: Human immunodeficiency virus 1; experiment: Antiviral activity against HIV1 isolate NL4-3 harboring reverse transcriptase Y181C mutant assessed as inhibition of viral replication by phenoscreen assay in presence of 40% normal human serum; assay type: functional, organism-based; details: Human immunodeficiency virus 1, isolate NL4-3
[38] = test system: Human immunodeficiency virus 1; experiment: Antiviral activity against HIV1 isolate NL4-3 harboring reverse transcriptase Y188L mutant assessed as inhibition of viral replication by phenoscreen assay in presence of 40% normal human serum; assay type: functional, organism-based; details: Human immunodeficiency virus 1, isolate NL4-3

**Q.** Which IC50 [1] does the source give for `N#Cc1cc(Cl)cc(Oc2cc(OCc3cc(-c4ccncc4)[nH]n3)ccc2Cl)c1` here?
**A.** Its IC50 is 22.3 nM.

**Q.** And the IC50 [2]?
**A.** Its IC50 is 161 nM.

**Q.** What about the IC50 [3] of the same compound?
**A.** Its IC50 is 90.2 nM.

**Q.** And the IC50 [4]?
**A.** The IC50 was over 1000 nM.

**Q.** What about the IC50 [5] of the same compound?
**A.** The IC50 was 120 nM.

**Q.** And the IC50 [6]?
**A.** The IC50 was 131 nM.

**Q.** What about the IC50 [7] of the same compound?
**A.** The IC50 was 32.4 nM.

**Q.** And the IC50 [8]?
**A.** The IC50 was 118 nM.

**Q.** What about the IC50 [9] of the same compound?
**A.** The IC50 was 332 nM.

**Q.** What about the IC50 [10] of the same compound?
**A.** The IC50 was over 1000 nM.

**Q.** And the IC50 [11]?
**A.** The IC50 was over 1000 nM.

**Q.** What about the “Ratio IC50” value [12] of the same compound?
**A.** The value was 4.9.

**Q.** And the “Ratio IC50” value [13]?
**A.** Its value is 4.4.

**Q.** And the “Ratio IC50” value [14]?
**A.** The value was 8.

**Q.** What about the “Ratio IC50” value [15] of the same compound?
**A.** Its value is over 222.

**Q.** What about the “Ratio IC50” value [16] of the same compound?
**A.** Its value is 5.

**Q.** And the “Ratio IC50” value [17]?
**A.** The value was 35.7.

**Q.** What about the “Ratio IC50” value [18] of the same compound?
**A.** Its value is 20.

**Q.** What about the “Ratio IC50” value [19] of the same compound?
**A.** Its value is over 222.

**Q.** And the “Ratio IC50” value [20]?
**A.** Its value is 26.6.

**Q.** What about the “Ratio IC50” value [21] of the same compound?
**A.** Its value is 29.1.

**Q.** What about the “Ratio IC50” value [22] of the same compound?
**A.** Its value is 7.2.

**Q.** What about the “Ratio IC50” value [23] of the same compound?
**A.** Its value is 26.2.

**Q.** And the “Ratio IC50” value [24]?
**A.** Its value is 73.7.

**Q.** And the “Ratio IC50” value [25]?
**A.** Its value is over 222.

**Q.** And the “Ratio IC50” value [26]?
**A.** The value was over 222.

**Q.** What about the IC95 [27] of the same compound?
**A.** The IC95 was 25 nM.

**Q.** What about the Ki [28] of the same compound?
**A.** The Ki was 0.7 nM.

**Q.** What about the Ki [29] of the same compound?
**A.** The Ki was 4.2 nM.

**Q.** What about the Ki [30] of the same compound?
**A.** The Ki was 4.6 nM.

**Q.** What about the IC50 [31] of the same compound?
**A.** The IC50 was 4.5 nM.

**Q.** What about the IC95 [32] of the same compound?
**A.** The IC95 was 102 nM.

**Q.** And the IC95 [33]?
**A.** The IC95 was 102 nM.

**Q.** And the IC95 [34]?
**A.** Its IC95 is 278 nM.

**Q.** What about the IC50 [35] of the same compound?
**A.** Its IC50 is 21.9 nM.

**Q.** What about the IC50 [36] of the same compound?
**A.** Its IC50 is 19.7 nM.

**Q.** What about the IC50 [37] of the same compound?
**A.** Its IC50 is 36.2 nM.

**Q.** What about the IC50 [38] of the same compound?
**A.** The IC50 was over 1000 nM.
